We go through 62 molecules from patent publication US20230126310A1 (priority 2020, published 2023).

Where two headings read alike, the source gives them in different places. Square brackets hold non-standard residues; d marks the D form. Peptide text beside a SMILES is read from it. NMeF = CN[C@@H](Cc1ccccc1)C(=O)O

The assay relates to SARS-CoV-2.

For the molecule `CC(C)c1c2cc(-c3ccnc(NC4CCC(NC5CCOCC5)CC4)n3)ccc2nn1C` (stereo not drawn) [LY2857785], the “% Inh. (% Inhibition of SARS-CoV-2)” value (10 µM) was 89.1%. For `CC(C)(C)n1nc(-c2cccc3ccccc23)c2c(N)ncnc21` [1-naphthyl-PP1], the “% Inh. (% Inhibition of SARS-CoV-2)” value (10 µM) is 94.1%.

As for `Cl.c1ccc2c(-c3cnn4cc(-c5ccc(N6CCNCC6)cc5)cnc34)ccnc2c1` [LDN193189 (Hydrochloride)], the “% Inh. (% Inhibition of SARS-CoV-2)” value (10 µM) is reported as 74.3%. On to `CSc1nc(-c2ccnc(NC(C)c3ccccc3)c2)c(-c2ccc(F)cc2)[nH]1` (stereo not drawn) [ML-3403], for which, for the setting “10 µM”, the “% Inh. (% Inhibition of SARS-CoV-2)” value came out at 50.3%. As for `Nc1cccc(CNC(=O)c2ccc(Oc3ccc(OCc4cccc(F)c4)cc3)nc2)c1` [YM-244769], the “% Inh. (% Inhibition of SARS-CoV-2)” value (10 µM) is 60.4%.

Consider `COc1cc2ncnc(Nc3cccc(Cl)c3)c2cc1OC` [AG-1478 (Tyrphostin AG-1478), Tyrphostin AG-1478], for which, for the setting “10 µM”, the “% Inh. (% Inhibition of SARS-CoV-2)” value is recorded as 73.9%.

In the case of `COC(=O)Nc1ccc(-c2nc(N3CCOCC3)c3cnn(C4CCN(C(=O)OC)CC4)c3n2)cc1` [WYE-354], the “% Inh. (% Inhibition of SARS-CoV-2)” value (10 µM) is recorded as 89.9%. On the same count and under the same terms, with GSK9027 the figure was 64.1%; with `CCC(=O)N1CCN(c2ccc(-n3c(=O)ccc4cnc5ccc(-c6cnc7ccccc7c6)cc5c43)cc2C(F)(F)F)CC1` [Torin 1], 75.3%. `C=C1/C(=C\C=C2/CCC[C@]3(C)[C@@H]([C@H](C)/C=C/[C@H](C)C(C)(C)O)CC[C@@H]23)C[C@@H](O)C[C@@H]1O` [Ercalcitriol]: the “% Inh. (% Inhibition of SARS-CoV-2)” value (10 µM) was 86.9%.

Turning to `Fc1ccc(CNc2ncnc3ccc(F)cc23)cc1` [spautin-1], for the setting “10 µM”, the “% Inh. (% Inhibition of SARS-CoV-2)” value came to 92.1%.

`CCCCC1CCC(c2nc(-c3ccncc3)no2)CC1` (stereo not drawn) [PSN-375963]: under “10 µM”, the “% Inh. (% Inhibition of SARS-CoV-2)” value is given as 83.9%.

For the molecule `COc1ccccc1C(=O)Nc1cccc(NC(=O)c2cccc(C)c2)c1` [ML-365], the “% Inh. (% Inhibition of SARS-CoV-2)” value (10 µM) was 92.7%.

With `N#Cc1ccc(N2N=C3c4ccc(C(=O)O)cc4CC[C@@H]3[C@@H]2C2CCCC2)cc1Cl` [PF-03882845], the “% Inh. (% Inhibition of SARS-CoV-2)” value (10 µM) worked out at 58.6%. Regarding `O=C1NC(=O)c2cc(Nc3ccc(F)cc3)c(Nc3ccc(F)cc3)cc21` [CGP-53353], the “% Inh. (% Inhibition of SARS-CoV-2)” value (10 µM) worked out at 86.1%. Turning to `N#Cc1cnc2cnc(NCc3cccnc3)cc2c1Nc1ccc(F)c(Cl)c1` [TC-S-7006], the “% Inh. (% Inhibition of SARS-CoV-2)” value (10 µM) came to 100.7%. Consider `CNS(=O)(=O)Nc1nccc(Cc2c(C)c3ccc(Oc4ncccn4)cc3oc2=O)c1F` [RO5126766 (CH5126766)], for which inhibition was half-maximal at 5.36 µM (IC50) and the pIC50 turned out to be 5.27. For the same molecule, under “10 µM”, the “% Inh. (% Inhibition of SARS-CoV-2)” value is reported as 102.6%.

As for `O=C(Nc1cnccc1Cl)N1CCN(Cc2ccc3c(c2)OC(F)(F)O3)CC1` [JNJ-42165279], the “% Inh. (% Inhibition of SARS-CoV-2)” value (10 µM) was found to be 94.9%. Consider I-BET151 (GSK1210151A), for which the “% Inh. (% Inhibition of SARS-CoV-2)” value (10 µM) was determined as 56.0%. Still for that read-out and setting: under `O=C(NCCCCCCNC(=O)ON=C1CCCCC1)ON=C1CCCCC1` [RHC-80267] stands 63.9%; under `CC(C)(Cc1ccc2ccccc2c1)NC[C@@H](O)COc1cccc(Cl)c1C#N` [NPS-2143 (SB262470)], 67.3%. With `COc1cccc(-c2cc(F)ccc2[C@H]2Cc3nc(N)nc(C)c3C(=O)N2)n1` [NVP-HSP990], the “% Inh. (% Inhibition of SARS-CoV-2)” value (10 µM) was 100.4%. Consider MONENSIN SODIUM, for which the “% Inh (% inhibition of virus infection)” value (comparative experiments, Examples 1 and 2) worked out at 103.2%.

In the case of `CCC(C)C1O[C@]2(C=C[C@@H]1C)C[C@@H]1CC(C/C=C(\C)[C@@H](OC3C[C@H](OC)[C@@H](OC4C[C@H](OC)[C@@H](O)[C@H](C)O4)[C@H](C)O3)[C@@H](C)/C=C/C=C3\COC4[C@H](O)C(C)=CC(C(=O)O1)[C@]34O)O2` (stereo partly drawn) [ABAMECTIN (avermectin B1a)], the “% Inh. (% Inhibition of SARS-CoV-2)” value (10 µM) stood at 108.9%.

With `CCN(CC)CC1CCN(c2ncc3ncnc(Nc4ccc(F)c(Cl)c4)c3n2)CC1.Cl.Cl` [BIBU-1361], the “% Inh. (% Inhibition of SARS-CoV-2)” value (10 µM) was determined as 78.5%.

On to `CCCCN1[C@@H]2CC[C@H]1CC(OC(c1ccc(F)cc1)c1ccc(F)cc1)C2` (stereo partly drawn) [JHW-007], for which the “% Inh. (% Inhibition of SARS-CoV-2)” value (10 µM) worked out at 93.1%. With `CNCc1ccc(C)c(NC(=O)c2ccc(Nc3nc(-c4ccccc4)c4ccccc4n3)cc2)c1` [BMS-833923 (XL139)], where the note is “10 µM”, the “% Inh. (% Inhibition of SARS-CoV-2)” value turned out to be 68.8%. `CN(C)C(=O)c1ccc(S(=O)(=O)c2ccc(NC(=O)[C@@](C)(O)C(F)(F)F)c(Cl)c2)cc1` [AZD7545]: under “10 µM”, the “% Inh. (% Inhibition of SARS-CoV-2)” value was 82.4%. As to `CCCCCCN(CCCCCC)C(=O)Cc1c(-c2ccc(F)cc2)[nH]c2ccccc12` [FGIN-1-27], the “% Inh. (% Inhibition of SARS-CoV-2)” value (10 µM) was 73.5%. The same measure, in the same setting: with `Cc1ccc([N+](=O)[O-])cc1S(=O)(=O)N(C)/N=C/c1cnc2ccc(Br)cn12` [PIK-75] the figure was 87.6%; with `Cc1ccc(-c2nn(C(C)(C)C)c3ncnc(N)c23)cc1` [PP-1], 121.9%; with `O=C(Nc1ccccc1)N1CCN(c2nc(-c3ccccc3)ns2)CC1` [JNJ 1661010], 93.8%. In the case of `CC(C)(C)c1cc(C(=O)/C=C/c2ccc(C(=O)O)cc2)cc(C(C)(C)C)c1` [CH55], the “% Inh. (% Inhibition of SARS-CoV-2)” value (10 µM) turned out to be 87.5%. The same measure, in the same setting: with `O=[N+]([O-])c1ccccc1S(=O)(=O)NCC1CCC(CNC[C@H]2CCc3ccccc3C2)CC1` (stereo partly drawn) [NTNCB] the figure was 92.7%. For `CCOC(=O)c1c(C)[nH]c2ccc3c(c12)CN1CCc2cc(OC)ccc2C1O3` (stereo not drawn) [PD-102807], the “% Inh. (% Inhibition of SARS-CoV-2)” value (10 µM) is listed as 121.8%.

Turning to `COc1ccc(-c2csc(NC(=O)[C@H]3CCCCN3S(=O)(=O)c3ccc(C)cc3)n2)cc1` [ML-277], the “% Inh. (% Inhibition of SARS-CoV-2)” value (10 µM) was found to be 99.3%. With `CC[C@@]1(O)C(=O)OCc2c1cc1n(c2=O)Cc2cc3c(N)cccc3nc2-1` [9-aminocamptothecin], the “% Inh. (% Inhibition of SARS-CoV-2)” value (10 µM) amounted to 80.3%. On the same count and under the same terms, under `CC1CCN(C(c2ccc(F)cc2)c2ccc(C(C)C(=O)O)cc2-c2ccc(C(F)(F)F)cc2)CC1` (stereo not drawn) [TC-E-5006] stands 94.1%; under `CO[C@@H](C)Cn1c(=O)n(C)c2cnc3ccc(-c4cncc(C(C)(C)O)c4)cc3c21` [LY3023414], 92.7%; under `NC(CO)(CO)CO.Nc1nccc(Oc2ccc(NC(=O)c3cn(COP(=O)(O)O)cc(-c4ccc(F)cc4)c3=O)cc2F)c1Cl` [SCR-1481B1], 89.3%. Consider `CSCC[C@H](NC(=O)[C@H](CC(C)C)NC(=O)[C@@H](Cc1c[nH]c2ccccc12)NC(=O)[C@H](Cc1ccccc1)N(C)C(=O)[C@@H](Cc1c[nH]c2ccccc12)NC(=O)[C@@H](N)CCCNC(=N)N)C(N)=O` [Antagonist-G] (H-R[dW][NMeF][dW]LM-NH2; N-terminus and C-terminus assumed), for which the “% Inh. (% Inhibition of SARS-CoV-2)” value (48 h, 10 μM) is 58.0%. Turning to `C[C@H](NC(=O)c1sccc1OCc1ccc(Cl)cc1)c1ccccc1` [AS-1949490], the “% Inh. (% Inhibition of SARS-CoV-2)” value (10 µM) amounted to 103.1%. `COc1cc(Br)c(Nc2nc(-c3c(C)nc4ncccn34)cs2)c(Br)c1` [PTC-209]: under “10 µM”, the “% Inh. (% Inhibition of SARS-CoV-2)” value is 103.6%.

Consider `CC(CNS(=O)(=O)C(C)C)c1ccc(-c2ccc(C#N)cc2)cc1` (stereo not drawn) [LY-404187], for which, for the setting “10 µM”, the “% Inh. (% Inhibition of SARS-CoV-2)” value came to 80.4%. Consider `c1cncc(CN2CCC(n3ncc4c(N5CCOCC5)nc(-c5ccc6[nH]ccc6c5)nc43)CC2)c1` [WAY-600], for which the “% Inh. (% Inhibition of SARS-CoV-2)” value (10 µM) is listed as 99.1%. The same measure, in the same setting: with `Cc1cc(N2CCOCC2)ccc1Nc1nc(NC2CCCCC2)c2[nH]cnc2n1` [MPI-0479605] the figure was 61.2%. On to `O=C(/C=C/c1ccc2ccccc2n1)c1ccncc1` [PFK-015], for which half-maximal inhibition (IC50) was put at 7.03 µM and the pIC50 is on record as 5.15. Besides, under “10 µM”, the “% Inh. (% Inhibition of SARS-CoV-2)” value is recorded as 101.3%. In the case of `COc1ccc2nc3cc(Cl)ccc3c(Nc3cc(CN4CCCC4)c(O)c(CN4CCCC4)c3)c2n1.O=P(O)(O)O.O=P(O)(O)O.O=P(O)(O)O.O=P(O)(O)O` [PYRONARIDINE TETRAPHOSPHATE], for the setting “10 µM”, the “% Inh. (% Inhibition of SARS-CoV-2)” value amounted to 80.6%. Consider `Clc1ccc(N/N=C(\c2ccccc2)c2ccccn2)nc1` [JIB04 (NSC693627)], for which the “% Inh. (% Inhibition of SARS-CoV-2)” value (10 µM) came out at 106.4%.

Take `CCN1/C(=C/C(C)=O)Sc2ccc(OC)cc21` [TG003]: under “10 µM”, the “% Inh. (% Inhibition of SARS-CoV-2)” value is 55.4%. On to `CC(=O)O[C@H]1C[C@H](O[C@H]2[C@@H](O)C[C@H](O[C@H]3[C@@H](O)C[C@H](O[C@H]4CC[C@@]5(C)[C@H](CC[C@@H]6[C@@H]5C[C@@H](O)[C@]5(C)[C@@H](C7=CC(=O)OC7)CC[C@]65O)C4)O[C@@H]3C)O[C@@H]2C)O[C@H](C)[C@H]1O[C@@H]1O[C@H](CO)[C@@H](O)[C@H](O)[C@H]1O` [LANATOSIDE C], for which the “% Inh. (% Inhibition of SARS-CoV-2)” value (10 µM) turned out to be 63.7%. Consider `COc1cc(/C=C2\CCCN([C@@H](C)c3ccc(F)cc3)C2=O)ccc1-n1cnc(C)c1` [E 2012], for which the “% Inh. (% Inhibition of SARS-CoV-2)” value (10 µM) was found to be 100.8%. For the molecule `O=C(Nc1ccccc1Br)N[C@@H]1CCN(c2ccc(C(F)(F)F)cn2)C1` [SB705498], the “% Inh. (% Inhibition of SARS-CoV-2)” value (10 µM) was found to be 64.6%. With `O=C(Cc1ccc(-c2ccc(OCCN3CCOCC3)cc2)cn1)NCc1ccccc1` [KX2-391], the “% Inh. (% Inhibition of SARS-CoV-2)” value (10 µM) is 79.9%. For `C[C@@H]1COCCN1c1cc(C2(S(C)(=O)=O)CC2)nc(-c2cccc3[nH]ccc23)n1` [AZ20], the “% Inh. (% Inhibition of SARS-CoV-2)” value (10 µM) was determined as 100.0%. Still for that read-out and setting: under `COc1ccc2[nH]c3c(-c4cccc5ccccc45)nccc3c2c1` [SP-141] stands 68.6%; under `CC[N+](C)(CC)CCC[n+]1c(-c2ccccc2)c2cc(N)ccc2c2ccc(N)cc21.[I-].[I-]` [propidium-iodide], 69.7%; under `Cc1cccc(CC(=O)N2CCc3c2ccc(-c2cn(C)c4ncnc(N)c24)c3F)n1` [GSK2656157], 95.0%. Same read-out and setting: with `COc1cc(Br)c(S(=O)(=O)Nc2ccc(Cl)c(O[C@@H]3CCN(C)C3)c2)cc1OC` [SB-657510] the figure was 101.1%. The same measure, in the same setting: under `Cc1ccc(NC(=O)c2cccc(C(C)(C)C#N)c2)cc1Nc1ccc2ncn(C)c(=O)c2c1` [AZ-628] stands 99.6%; under `COc1ccc(S(=O)(=O)N(CCO)c2ccccc2CN(C)C/C=C/c2ccc(Cl)cc2)cc1` [KN-93], 88.4%; under `CN1CC[C@@H](c2c(O)cc(O)c3c(=O)cc(-c4ccccc4Cl)oc23)[C@@H]1CO.Cl` [P276-00], 94.4%.
